In ChEMBL document CHEMBL4033613, “Rearranged Terpenoids from the Marine Sponge Darwinella cf. oxeata and Its Predator, the Nudibranch Felimida grahami” (J Nat Prod, 2017):

How the values were obtained:
Trypanosoma cruzi [1] = assay: Antitrypanosomal activity against Trypanosoma cruzi intracellular amastigotes; type: functional, cell-based
Trypanosoma cruzi [2] = assay: Antitrypanosomal activity against Trypanosoma cruzi trypomastigotes; type: functional
[3] = Cytotoxicity against mammalian NCTC cells; type: functional; conditions: Mammalia
[4] = Trypanosoma cruzi, read-out: IC50

Compound	IC50 (Trypanosoma cruzi [1]; [4])	IC50 (Trypanosoma cruzi [2]; [4])	CC50 [3]	IC50 (Trypanosoma cruzi [1])	IC50 (Trypanosoma cruzi [2])
COC(=O)[C@H](C)c1c([C@@]2(C)CCCC(C)(C)C2)ccc2c1C(=O)OC2	20 µM	29 µM	54 µM	–	–
C[C@@H](C(=O)O)c1c([C@@]2(C)CCCC(C)(C)C2)ccc2c1CN(C)C2=O	–	–	–	Not Active	Not Active
C[C@@H](C(=O)O)c1c([C@@]2(C)CCCC(C)(C)C2)ccc2c1CN(CC(=O)O)C2=O	–	–	–	Not Active	Not Active
